Results: US11364299B2, “Non-addictive analgesic sustained-release drug delivery system and preparation method thereof” (LIPONT PHARMACEUTICALS INC., priority 2013, dated 2022)
Structures can show the parent of a compound that is named as a salt. Where two headings read alike, the source gives them in different places.

Assays:
[1] = Solubility tests of ropivacaine free base and corresponding salts; format: physicochemical
Source text: If a drug dissolved completely, addition of this drug was continued until saturation.

[2] = Structural stability of ropivacaine sustained-release formulations (content determination); format: physicochemical; conditions: content determination after 30 days
[3] = Formulation experiment for sustained-release formulation delivery system; format: physicochemical; conditions: for Solubility: in ethanol, benzyl alcohol, benzyl benzoate, and ethyl lactate
Source text: Detailed experimental procedures were similar to those in Experimental Example 2. As shown in the experimental results, part of the drug delivery system combinations that may be used in the formula of the sustained-release formulation delivery system is as follows: […]

[4] = In vitro dissolution stability of the drug formulations; format: physicochemical; conditions: compared with ropivacaine free base
patients = conditions: cited from earlier work
[5] = cited from earlier work
plasma proteins = conditions: concentration-dependent; cited from earlier work
[6] = Compound compositions: dezocine and parecoxib in the drug delivery systems; format: physicochemical; conditions: prescribed compositions of Table IV; 25° C. and 4° C., about 24 h
[7] = Verification of the solubility of various local anesthetics in the sustained-release drug delivery system; format: physicochemical; conditions: 4° C., 24 hours, 15-20 mg/ml
Experimental: The 12 local anesthetics were each added into the selected drug delivery systems, and the dissolution process of the drugs was observed (norm: 15-20 mg/ml, observed at 25° C. for 24 hours with recordation; or observed at 4° C. for 24 hours with recordation).

[8] = in glyceryl monoacetate, 25° C.
[9] = in tetrahydrofurfuryl polyethylene glycol ether, 25° C.

CCCN1CCCC[C@H]1C(=O)Nc1c(C)cccc1C [Ropivacaine free base]
Solubility ([1]; in anhydrous ethanol, 25° C.): 155000 µg/mL | Solubility ([1]; in anhydrous ethanol, 25° C., listed as ropivacaine free base): exceeding 150 mg/ml | Solubility ([1]; in benzyl alcohol, 25° C.): 225000 µg/mL | Solubility ([1]; in benzyl alcohol, 25° C., listed as ropivacaine free base): exceeding 150 mg/ml | Solubility ([1]; in benzyl benzoate, 25° C.): 70000 µg/mL | Solubility ([1]; in castor oil, 25° C.): 17000 µg/mL | Solubility ([1]; in corn oil, 25° C.): 9400 µg/mL | Solubility ([1]; in ethyl lactate, 25° C.): 80000 µg/mL | Solubility ([1]; in ethyl oleate, 25° C.): 14900 µg/mL | Solubility [1, 8]: 18000 µg/mL | Solubility ([1]; in olive oil, 25° C.): 9800 µg/mL | Solubility ([1]; in sesame oil, 25° C.): 11700 µg/mL | Solubility ([1]; in soybean oil, 25° C.): 9600 µg/mL | Solubility [1, 9]: 39600 µg/mL | structural stability in various prescribed compositions [2]: structurally stable and did not degrade | solubility in mixed solvent [3]: increased solubility

CCCN1CCCC[C@H]1C(=O)Nc1c(C)cccc1C [Ropivacaine hydrochloride]
Solubility ([1]; anhydrous ethanol, 25 °C, organic solvent or mixture, thermodynamic from solid, in anhydrous ethanol, read-out: Solubility): 95000 µg/mL | Solubility ([1]; benzyl alcohol, 25 °C, organic solvent or mixture, thermodynamic from solid, in benzyl alcohol, read-out: Solubility): > 100000 µg/mL | Solubility ([1]; benzyl benzoate, 25 °C, organic solvent or mixture, thermodynamic from solid, in benzyl benzoate, read-out: Solubility): 2500 µg/mL | Solubility ([1]; castor oil, 25 °C, oil or lipid, thermodynamic from solid, in castor oil, read-out: Solubility): 1700 µg/mL | Solubility ([1]; corn oil, 25 °C, oil or lipid, thermodynamic from solid, in corn oil, read-out: Solubility): 2500 µg/mL | Solubility ([1]; ethyl lactate, 25 °C, organic solvent or mixture, thermodynamic from solid, in ethyl lactate, read-out: Solubility): 16500 µg/mL | Solubility ([1]; ethyl oleate, 25 °C, oil or lipid, thermodynamic from solid, in ethyl oleate, read-out: Solubility): 2200 µg/mL | Solubility ([1]; glyceryl monoacetate, 25 °C, organic solvent or mixture, thermodynamic from solid, in glyceryl monoacetate, read-out: Solubility): 30000 µg/mL | Solubility ([1]; in benzyl alcohol, 25° C.): 140000 µg/mL | Solubility ([1]; olive oil, 25 °C, oil or lipid, thermodynamic from solid, in olive oil, read-out: Solubility): 1700 µg/mL | Solubility ([1]; sesame oil, 25 °C, oil or lipid, thermodynamic from solid, in sesame oil, read-out: Solubility): 2000 µg/mL | Solubility ([1]; soybean oil, 25 °C, oil or lipid, thermodynamic from solid, in soybean oil, read-out: Solubility): 2000 µg/mL | Solubility ([1]; tetrahydrofurfuryl polyethylene glycol ether, 25 °C, organic solvent or mixture, thermodynamic from solid, in tetrahydrofurfuryl polyethylene glycol ether, read-out: Solubility): 9000 µg/mL | solubility in mixed solvent ([3]; mixture of benzyl benzoate with one of ethanol and benzyl alcohol): increased solubility

CCCN1CCCC[C@H]1C(=O)Nc1c(C)cccc1C.CS(=O)(=O)O [Ropivacaine methansulfonate]
Solubility ([1]; in anhydrous ethanol, 25° C.): 320000 µg/mL | Solubility ([1]; in anhydrous ethanol, 25° C., listed as ropivacaine methansulfonate): exceeding 190 mg/ml | Solubility ([1]; in benzyl alcohol, 25° C.): 550000 µg/mL | Solubility ([1]; in benzyl alcohol, 25° C., listed as ropivacaine methansulfonate): exceeding 190 mg/ml | Solubility ([1]; in benzyl benzoate, 25° C.): 2000 µg/mL | Solubility ([1]; in castor oil, 25° C.): 2000 µg/mL | Solubility ([1]; in corn oil, 25° C.): 1700 µg/mL | Solubility ([1]; in ethyl lactate, 25° C.): 198000 µg/mL | Solubility ([1]; in ethyl lactate, 25° C., listed as ropivacaine methansulfonate): exceeding 190 mg/ml | Solubility ([1]; in ethyl oleate, 25° C.): 2000 µg/mL | Solubility [1, 8]: 50000 µg/mL | Solubility ([1]; in olive oil, 25° C.): 2000 µg/mL | Solubility ([1]; in sesame oil, 25° C.): 1700 µg/mL | Solubility ([1]; in soybean oil, 25° C.): 2500 µg/mL | Solubility [1, 9]: 13200 µg/mL | solubility in various prescribed compositions [4]: slightly poorer than that of ropivacaine free base | solubility in mixed solvent [3]: increased solubility

CCCN1CCCC[C@H]1C(=O)Nc1c(C)cccc1C [Ropivacaine, 1-propy 1-2,6-pipeco loxylidide laevo isomer]
cardiac toxicity and safety (patients; 0.1% ropivacaine versus 0.1% bupivacaine, elderly patients): relatively lower cardiac toxicity and higher safety in use | analgesic effect of continuous epidural infusion (patients; 0.1% ropivacaine, elderly patients after lower limb surgeries (Zonglin YANG et al.)): comparable to that with 0.1% bupivacaine | transaxillary brachial plexus block (patients; 0.375% ropivacaine versus 0.25% bupivacaine (Qihong ZHAO et al.)): faster onset, better efficacy, and fewer adverse effects as compared to 0.25% bupivacaine | local infiltration anesthetic analgesia (patients; human, in vivo): substantial and lasting analgesic effect with few adverse reactions | analgesic duration (patients; human, one clinical injection): about 8 hours | gynecologic post-operative patient-controlled analgesia (patients; versus bupivacaine (Shunfu CHEN)): more suitable for patient-controlled analgesic local anesthesia in gynecologic post-operative patients than bupivacaine | epidural absorption, half-time of fast phase ([5]; epidural): 14 min | epidural absorption, half-time of slow phase ([5]; epidural): 4 h | steady distribution volume ([5]; in vivo): 47 L | association with plasma proteins (plasma proteins): 94%

C[C@@]12CCCCC[C@@H](Cc3ccc(O)cc31)[C@@H]2N [dezocine]
Solubility [6]: > 30000 µg/mL | Solubility [3]: good solubility

CCC(=O)NS(=O)(=O)c1ccc(-c2c(-c3ccccc3)noc2C)cc1 [parecoxib]
Solubility [6]: > 20000 µg/mL | Solubility [3]: good solubility

CCN(CC)CCOC(=O)c1ccc(N)cc1 [procaine]
solubility in the ethyl oleate/soybean oil drug delivery system [7]: slightly precipitated

CCCCNc1ccc(C(=O)OCCN(C)C)cc1 [tetracaine]
solubility in the ethyl oleate/soybean oil drug delivery system [7]: slightly precipitated
